{"source": "patent US20250276034A1", "about": "“RELEASE-CONTROLLED TOPICAL INJECTION COMPOSITION CONTAINING CYCLIC PEPTIDE AND PREPARATION METHOD THEREFOR” (ORIENTBIO INC., priority 2021, published 2025)", "key": {"[1]": {"test": "Determination of crystallinity by X-ray diffraction (XRD)", "format": "physicochemical", "details": "raw powder and after evaporation or drowning-out crystallization", "description": "XRD measurement conditions and a crystallization method used in this experiment are as follows.\nX-ray diffractometer (model name: MiniFlex, Rigaku, Tokyo, Japan/-X-ray generator: graphite monochromatized Cu Kα radiation (λ=1.5418 Å, 2θ range: from 10° to 30° with a step size of 0.02°/−Scanning rate: 1.0°/min)"}, "Solubility in water": {"test": "Solubility in water", "format": "physicochemical"}, "[2]": {"test": "Drug remaining at administration site, non-administration site and in blood after topical injection (LC/MS)", "format": "in vivo, mice (C57BL/6)", "description": "Specifically, the drug level in blood was determined by a liquid-liquid extraction method using methyl tert-butyl ether (MTBE) and LC/MS analysis. Preparation of skin samples at a targeted site and a non-administration site and the liquid-liquid-phase extraction method using MTBE were the same as in Experimental Example 9. […] After initially increasing the proportion of mobile phase B to 20% for 3 minutes to equilibrate the mobile phase, the flow rate of the mobile phase was 0.4 ml/min and the sample injection volume was 3 μl. In addition, as a mass spectrometer, a 4000 Q TRAP Mass Spectrometer system from Applied Bioscience was used."}, "[3]": {"test": "In-vitro skin penetration and skin deposition (Franz diffusion cell)", "format": "in vitro ADME", "details": "porcine skin, 200 μg OND-1 in 0.2 ml olive oil, 37° C.", "description": "A percutaneous absorption diffusion test (Franz diffusion cell) was conducted to determine skin penetration of position 3-substituted cyclosporine derivatives by topical skin application.\nSpecifically, frozen porcine skin was thawed, followed by removal of subcutaneous fat from the dermis, and then the skin was cut into a disc shape with a diameter of 3 cm. Then, the skin was mounted in a skin permeation device (Franz diffusion, receptor volume: 5 ml, diffusion area: 0.785 cm^2) with the stratum corneum facing an upper donor chamber and the dermis facing a lower receptor chamber. […] Hourly, 500 μl of a receiving solution (PBS containing 0.2% Tween 80, pH: 7.4) was sampled, followed by replenishment with an equal volume of fresh one.\nThe position 3-substituted cyclosporine derivative in the sampled solution was subjected to quantitative analysis by HPLC, followed by calculation of the average value of five replicates to determine the permeation amount of the position 3-substituted cyclosporine derivative.\nAfter 24 hours of use, the skin was removed from the skin permeation device, washed several times with ethanol, dried, and tape-stripped (10 times with scotch tape) to completely remove any residual drug from the surface thereof. The collected skin samples were lysed by incubation with collagenase type I (Gibco®) solution at 37° C. for 24 hours. Thereafter, samples were obtained by a liquid-liquid phase extraction method using methyl tert-butyl ether (MTBE), followed by quantitative analysis of the position 3-substituted cyclosporine derivative by HPLC to calculate the quantity of drug deposited in the skin.\nDetails of the liquid-liquid extraction method are as follows. A 200 μl to 400 μl aliquot of each of the lysed skin samples was dispensed, followed by addition of 1.2 ml of MTBE. After high-speed shaking for 10 minutes, an organic solvent layer (1 ml) was separated by centrifugation (13,000 rpm, 3 minutes) and then dried under nitrogen flow for 10 minutes. Thereafter, the organic solvent layer was dissolved with a reconstituted solvent (75% acetonitrile) and filtered through a syringe filter to obtain a sample for analysis."}, "[4]": {"test": "Partition coefficient (log P)", "format": "physicochemical"}, "[5]": {"test": "Determination of crystallinity by differential scanning calorimetry (DSC)", "format": "physicochemical", "details": "raw powder, heating curves", "description": "Differential scanning calorimetry (DSC) was used to identify a difference in crystallinity between cyclosporine A and OND-1 by determining the melting point, glass transition temperature, and recrystallization of the drugs. DSC measurement conditions were as follows.\nDSC (model name: DSC Q2000; manufacturer: TA instruments; purging gas: N2 gas (flow: 70 mL/min); heating rate: 5° C./min; isothermal temperature: 10° C./min; cycle number: 1 (from 20° C. to 200° C.)"}}, "data": [{"compound": "C/C=C/C[C@@H](C)[C@@H](O)[C@H]1C(=O)N[C@@H](CC)C(=O)N(C)[C@H](SC)C(=O)N(C)[C@@H](CC(C)C)C(=O)N[C@@H](C(C)C)C(=O)N(C)[C@@H](CC(C)C)C(=O)N[C@@H](C)C(=O)N[C@H](C)C(=O)N(C)[C@@H](CC(C)C)C(=O)N(C)[C@@H](CC(C)C)C(=O)N(C)[C@@H](C(C)C)C(=O)N1C", "note": "[OND-1, [D-2-methylthio-Sar^3]cyclosporine A]", "values": [{"measurement": "XRD pattern", "setting": "[1]", "result": "amorphous XRD pattern"}, {"measurement": "solubility", "setting": "Solubility in water", "result": 0.01, "unit": "mg/mL"}, {"measurement": "Analysis of OND-1 level in systemic blood (μg/ml)", "setting": "[2]; C57BL/6 mice, topical injection of depot solution containing particles of Example 1-B, individual test subjects 1-5", "result": "Not detected"}, {"measurement": "Quantity of OND-1 remaining at non-administration site (μg/g)", "setting": "[2]; C57BL/6 mice, topical injection of depot solution containing particles of Example 1-B, skin, individual test subjects 1-5", "result": "Not detected"}, {"measurement": "OND-1 detected in the skin at the site of topical administration", "setting": "[2]; mice, topical injection", "result": "highly detected"}, {"measurement": "OND-1 detected in the surrounding skin or the systemic blood", "setting": "[2]; mice, topical injection", "result": "rarely detected"}, {"measurement": "Penetration rate (μg/cm^2)", "setting": "[3]; 6 hr", "result": 1.3, "unit": "μg/cm^2"}, {"measurement": "Penetration rate (μg/cm^2)", "setting": "[3]; 14 hr", "result": 1.1, "unit": "μg/cm^2"}, {"measurement": "Penetration rate (μg/cm^2)", "setting": "[3]; 20 hr", "result": 0.2, "unit": "μg/cm^2"}, {"measurement": "Penetration rate (μg/cm^2)", "setting": "[3]; 24 hr", "result": 1.1, "unit": "μg/cm^2"}, {"measurement": "logP", "setting": "[4]", "result": 3.84}, {"measurement": "crystallinity by DSC", "setting": "[5]", "result": "amorphous"}]}, {"compound": "Cyclosporine A [CsA, reference compound]", "values": [{"measurement": "XRD pattern", "setting": "[1]", "result": "crystalline XRD pattern"}, {"measurement": "crystallinity by DSC", "setting": "[5]", "result": "crystalline"}]}]}
